From paper PMC9005681, “Use of AD Informer Set compounds to explore validity of novel targets in Alzheimer's disease pathology” (Alzheimer's & Dementia : Translational Research & Clinical …, 2022)
“And” between values parts separate entries of the source, which are not always exact repeats. Equal values may be shown once.

How the values were obtained:
Assay in all cases: PDSP GPCR panel primary binding assays at 10 μM
Conditions in all cases: primary assay
[1] = target: T1, cloned human or rodent CNS receptors, channels, and transporters (PDSP panel) (Homo sapiens, UniProt P08912)
T1 construct: expressed in transfected cells
T1 sequence (P08912 1-532): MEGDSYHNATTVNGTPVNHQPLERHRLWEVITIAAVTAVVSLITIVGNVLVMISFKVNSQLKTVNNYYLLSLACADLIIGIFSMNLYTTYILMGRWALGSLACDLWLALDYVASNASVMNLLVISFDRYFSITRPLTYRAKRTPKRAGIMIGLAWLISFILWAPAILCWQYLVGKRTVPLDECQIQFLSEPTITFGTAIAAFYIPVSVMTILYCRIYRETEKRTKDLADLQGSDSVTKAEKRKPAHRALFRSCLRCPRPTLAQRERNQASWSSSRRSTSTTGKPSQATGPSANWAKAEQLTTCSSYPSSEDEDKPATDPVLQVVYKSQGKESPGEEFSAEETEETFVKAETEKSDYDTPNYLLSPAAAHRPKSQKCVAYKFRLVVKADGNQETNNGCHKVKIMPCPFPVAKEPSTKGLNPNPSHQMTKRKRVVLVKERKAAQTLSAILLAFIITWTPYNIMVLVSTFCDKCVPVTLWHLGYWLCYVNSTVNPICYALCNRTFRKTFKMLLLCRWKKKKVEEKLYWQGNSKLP
Outline: (§1)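 PDSP panel of 46–47 cloned human or rodent CNS receptors, channels and transporters; radioligand displacement by compound at 10 μM, in quadruplicate. Where average displacement exceeded 50%, secondary binding followed as 11-point dose-response in triplicate (none for H3, PBR or GABAA).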

[2] = target: T2, cloned human or rodent CNS receptors, channels, and transporters (PDSP panel) (Homo sapiens, UniProt P21917)
T2 construct: expressed in transfected cells
T2 sequence (P21917 1-419): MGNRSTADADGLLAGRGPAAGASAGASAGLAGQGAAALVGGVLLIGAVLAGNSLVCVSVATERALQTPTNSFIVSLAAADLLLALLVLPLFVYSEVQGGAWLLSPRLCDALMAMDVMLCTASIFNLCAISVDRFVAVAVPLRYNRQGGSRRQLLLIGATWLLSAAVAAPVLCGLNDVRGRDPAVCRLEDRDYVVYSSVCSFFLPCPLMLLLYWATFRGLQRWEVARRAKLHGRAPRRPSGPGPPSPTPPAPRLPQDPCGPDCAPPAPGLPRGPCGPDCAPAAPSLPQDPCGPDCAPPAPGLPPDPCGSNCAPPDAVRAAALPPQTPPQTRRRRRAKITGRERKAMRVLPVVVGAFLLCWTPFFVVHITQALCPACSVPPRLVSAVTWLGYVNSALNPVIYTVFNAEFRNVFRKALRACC
Outline: as §1

[3] = target: T3, cloned human or rodent CNS receptors, channels, and transporters (PDSP panel) (Homo sapiens, UniProt P28335)
T3 construct: expressed in transfected cells
T3 sequence (P28335 33-458): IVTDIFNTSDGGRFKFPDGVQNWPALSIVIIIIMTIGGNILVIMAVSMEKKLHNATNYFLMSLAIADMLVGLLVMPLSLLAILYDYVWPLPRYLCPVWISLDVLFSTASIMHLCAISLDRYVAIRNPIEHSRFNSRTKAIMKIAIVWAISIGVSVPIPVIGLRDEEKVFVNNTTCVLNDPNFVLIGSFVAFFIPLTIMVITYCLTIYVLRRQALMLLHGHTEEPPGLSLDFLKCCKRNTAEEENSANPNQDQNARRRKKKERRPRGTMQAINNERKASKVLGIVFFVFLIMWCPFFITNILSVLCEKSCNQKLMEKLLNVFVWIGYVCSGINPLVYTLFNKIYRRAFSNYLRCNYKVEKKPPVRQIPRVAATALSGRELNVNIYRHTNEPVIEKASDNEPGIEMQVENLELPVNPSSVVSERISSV
Outline: as §1

[4] = target: T4, cloned human or rodent CNS receptors, channels, and transporters (PDSP panel) (Homo sapiens, UniProt P31645)
T4 construct: expressed in transfected cells
T4 sequence (P31645 whole entry): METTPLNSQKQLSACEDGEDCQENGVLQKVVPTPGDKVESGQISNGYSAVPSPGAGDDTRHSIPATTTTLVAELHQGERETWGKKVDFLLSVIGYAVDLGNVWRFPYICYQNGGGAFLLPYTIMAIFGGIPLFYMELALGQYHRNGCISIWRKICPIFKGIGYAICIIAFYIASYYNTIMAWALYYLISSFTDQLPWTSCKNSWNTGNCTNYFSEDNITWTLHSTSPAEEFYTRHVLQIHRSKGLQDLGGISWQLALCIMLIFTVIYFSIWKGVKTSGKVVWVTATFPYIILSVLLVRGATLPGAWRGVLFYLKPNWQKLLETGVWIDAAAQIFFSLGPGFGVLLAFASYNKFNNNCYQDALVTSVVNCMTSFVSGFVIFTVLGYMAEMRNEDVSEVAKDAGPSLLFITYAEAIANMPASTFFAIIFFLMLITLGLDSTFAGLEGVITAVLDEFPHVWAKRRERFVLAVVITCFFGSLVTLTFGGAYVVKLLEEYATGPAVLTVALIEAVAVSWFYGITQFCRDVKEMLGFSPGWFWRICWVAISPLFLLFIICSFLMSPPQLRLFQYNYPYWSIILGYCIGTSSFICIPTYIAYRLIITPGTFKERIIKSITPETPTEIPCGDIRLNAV
Outline: as §1

[5] = target: T5, cloned human or rodent CNS receptors, channels, and transporters (PDSP panel) (Homo sapiens, UniProt P35368)
T5 construct: expressed in transfected cells
T5 sequence (P35368 1-520): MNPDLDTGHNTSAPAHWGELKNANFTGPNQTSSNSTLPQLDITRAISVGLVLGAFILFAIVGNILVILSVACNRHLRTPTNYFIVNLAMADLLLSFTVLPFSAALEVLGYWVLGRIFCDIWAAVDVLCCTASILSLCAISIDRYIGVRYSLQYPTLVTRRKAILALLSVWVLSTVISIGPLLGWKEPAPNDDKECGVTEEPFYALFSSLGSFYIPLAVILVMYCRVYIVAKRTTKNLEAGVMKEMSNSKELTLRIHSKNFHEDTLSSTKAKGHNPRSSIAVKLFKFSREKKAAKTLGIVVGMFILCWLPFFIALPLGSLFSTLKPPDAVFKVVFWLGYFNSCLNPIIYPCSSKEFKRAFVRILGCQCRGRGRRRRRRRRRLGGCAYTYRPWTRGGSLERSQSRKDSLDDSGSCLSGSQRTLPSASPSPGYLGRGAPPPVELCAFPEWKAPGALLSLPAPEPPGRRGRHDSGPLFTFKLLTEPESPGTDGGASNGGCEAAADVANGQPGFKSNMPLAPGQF
Outline: as §1

[6] = target: T6, cloned human or rodent CNS receptors, channels, and transporters (PDSP panel) (Homo sapiens, UniProt P35462)
T6 construct: expressed in transfected cells
T6 sequence (P35462 whole entry): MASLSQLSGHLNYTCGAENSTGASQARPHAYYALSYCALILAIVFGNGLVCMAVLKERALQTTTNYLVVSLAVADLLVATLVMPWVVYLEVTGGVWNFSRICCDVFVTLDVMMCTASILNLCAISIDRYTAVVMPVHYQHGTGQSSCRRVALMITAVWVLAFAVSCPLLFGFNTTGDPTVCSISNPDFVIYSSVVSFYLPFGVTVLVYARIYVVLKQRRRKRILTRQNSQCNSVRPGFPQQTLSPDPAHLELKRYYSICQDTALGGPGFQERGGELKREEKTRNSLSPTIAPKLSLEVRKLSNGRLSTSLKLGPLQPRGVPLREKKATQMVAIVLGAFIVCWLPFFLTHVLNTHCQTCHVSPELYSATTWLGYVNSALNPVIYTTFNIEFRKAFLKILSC
Outline: as §1

[7] = Receptor M5, 10 μM, mean of Inhibition 1-4
[8] = Receptor D4, 10 μM, mean of Inhibition 1-4
[9] = Receptor 5-HT2C, 10 μM, mean of Inhibition 1-4
[10] = Receptor SERT, 10 μM, mean of Inhibition 1-4
[11] = Receptor Alpha1B, 10 μM, mean of Inhibition 1-4

CC(=O)N1CCC(NC(=O)NC23CC4CC(CC(C4)C2)C3)CC1 [UNC10302683A, AR9281]
Mean % ([1]; M5, mean inhibition): -4.97% | Inhibition 1 ([1]; M5, replicate 1): 0.06% | Inhibition 2 ([1]; M5, replicate 2): -4.77% | Inhibition 3 ([1]; M5, replicate 3): -10.3% | Inhibition 4 ([1]; M5, replicate 4): -4.87% | Mean % ([2]; D4, mean inhibition): -0.6% | Inhibition 1 ([2]; D4, replicate 1): 1.15% | Inhibition 2 ([2]; D4, replicate 2): -3.44% | Inhibition 3 ([2]; D4, replicate 3): -3.44% | Inhibition 4 ([2]; D4, replicate 4): 3.35% | Mean % ([3]; 5-HT2C, mean inhibition): -19.88% | Inhibition 1 ([3]; 5-HT2C, replicate 1): -9.33% | Inhibition 2 ([3]; 5-HT2C, replicate 2): -11.78% | Inhibition 3 ([3]; 5-HT2C, replicate 3): -20.61% | Inhibition 4 ([3]; 5-HT2C, replicate 4): -37.79% | Mean % ([4]; SERT, mean inhibition): -8.86% and -6.55% | Inhibition 1 ([4]; SERT, replicate 1): -9.63% and -17.8% | Inhibition 2 ([4]; SERT, replicate 2): -14.12% and -5.23% | Inhibition 3 ([4]; SERT, replicate 3): -7.44% and -8.27% | Inhibition 4 ([4]; SERT, replicate 4): -4.24% and 5.12% | Mean % ([5]; Alpha1B, mean inhibition): 5.33% | Inhibition 1 ([5]; Alpha1B, replicate 1): 32.86% | Inhibition 2 ([5]; Alpha1B, replicate 2): -1.86% | Inhibition 3 ([5]; Alpha1B, replicate 3): 1.69% | Inhibition 4 ([5]; Alpha1B, replicate 4): -11.37% | Mean % ([6]; D3, mean inhibition): -9.76% | Inhibition 1 ([6]; D3, replicate 1): -1.76% | Inhibition 2 ([6]; D3, replicate 2): -6.19% | Inhibition 3 ([6]; D3, replicate 3): -8.7% | Inhibition 4 ([6]; D3, replicate 4): -22.39%

O=c1oc2ccccc2cc1-c1cn2cc(Cc3ccc(F)cc3)sc2n1 [UNC10302680A, iMDK]
Inhibition 1 ([1]; Receptor M5, 10 μM): -0.74% | Inhibition 2 ([1]; Receptor M5, 10 μM): -17.55% | Inhibition 3 ([1]; Receptor M5, 10 μM): -6.68% | Inhibition 4 ([1]; Receptor M5, 10 μM): -10.7% | Mean % [1, 7]: -8.92% | Inhibition 1 ([2]; Receptor D4, 10 μM): -9.94% | Inhibition 2 ([2]; Receptor D4, 10 μM): -4.88% | Inhibition 3 ([2]; Receptor D4, 10 μM): -6.5% | Inhibition 4 ([2]; Receptor D4, 10 μM): 11.95% | Mean % [2, 8]: -2.34% | Inhibition 1 ([3]; Receptor 5-HT2C, 10 μM): 16.2% | Inhibition 2 ([3]; Receptor 5-HT2C, 10 μM): -2.94% | Inhibition 3 ([3]; Receptor 5-HT2C, 10 μM): -21.1% | Inhibition 4 ([3]; Receptor 5-HT2C, 10 μM): -2.94% | Mean % [3, 9]: -2.7% | Inhibition 1 ([4]; Receptor SERT, 10 μM): -12.44% and -8.39% | Inhibition 4 ([4]; Receptor SERT, 10 μM): -3% and 3.01% | Mean % [4, 10]: -8.37% and -12.73% | Inhibition 1 ([5]; Receptor Alpha1B, 10 μM): 2.49% | Inhibition 2 ([5]; Receptor Alpha1B, 10 μM): 0.66% | Inhibition 3 ([5]; Receptor Alpha1B, 10 μM): -2.09% | Inhibition 4 ([5]; Receptor Alpha1B, 10 μM): -5.18% | Mean % [5, 11]: -1.03% | Mean % ([6]; D3, mean inhibition): -15.93% | Inhibition 1 ([6]; D3, replicate 1): -10.82% | Inhibition 2 ([6]; D3, replicate 2): -16.8% | Inhibition 3 ([6]; D3, replicate 3): -16.41% | Inhibition 4 ([6]; D3, replicate 4): -19.69%

c1cn2cc(-c3ccc4cn[nH]c4c3)nc(Nc3ccc(N4CCOCC4)cc3)c2n1 [UNC10302678A, Entospletinib (GS-9973)]
Inhibition 1 ([1]; Receptor M5, 10 μM): -6.98% | Inhibition 2 ([1]; Receptor M5, 10 μM): -7.99% | Inhibition 3 ([1]; Receptor M5, 10 μM): 1.47% | Inhibition 4 ([1]; Receptor M5, 10 μM): 5.9% | Mean % [1, 7]: -1.9% | Inhibition 1 ([2]; Receptor D4, 10 μM): 5.16% | Inhibition 2 ([2]; Receptor D4, 10 μM): 7.36% | Inhibition 3 ([2]; Receptor D4, 10 μM): -2.39% | Inhibition 4 ([2]; Receptor D4, 10 μM): 2.39% | Mean % [2, 8]: 3.13% | Inhibition 1 ([3]; Receptor 5-HT2C, 10 μM): -15.71% | Inhibition 2 ([3]; Receptor 5-HT2C, 10 μM): 5.4% | Inhibition 3 ([3]; Receptor 5-HT2C, 10 μM): -17.18% | Inhibition 4 ([3]; Receptor 5-HT2C, 10 μM): -19.14% | Mean % [3, 9]: -11.66% | Inhibition 1 ([4]; Receptor SERT, 10 μM): 60.12% | Inhibition 2 ([4]; Receptor SERT, 10 μM): 23.39% and 14.88% | Inhibition 3 ([4]; Receptor SERT, 10 μM): 22.83% and 32.36% | Inhibition 4 ([4]; Receptor SERT, 10 μM): 31.59% and 27.97% | Mean % [4, 10]: 34.48% and 22.48% | Inhibition 1 ([5]; Receptor Alpha1B, 10 μM): 3.98% | Inhibition 2 ([5]; Receptor Alpha1B, 10 μM): -28.67% | Inhibition 3 ([5]; Receptor Alpha1B, 10 μM): -18.82% | Inhibition 4 ([5]; Receptor Alpha1B, 10 μM): -2.78% | Mean % [5, 11]: -11.57% | Inhibition 1 ([6]; Receptor D3, 10 μM): -22.2% | Inhibition 2 ([6]; Receptor D3, 10 μM): -12.17% | Inhibition 3 ([6]; Receptor D3, 10 μM): 0% | Inhibition 4 ([6]; Receptor D3, 10 μM): -11.01% | Mean % ([6]; Receptor D3, 10 μM, mean of Inhibition 1-4): -11.35%
